Data from article PMC7230232, “Secondary Metabolites from the Culture of the Marine-derived Fungus Paradendryphiella salina PC 362H and Evaluation of the Anticancer Activity of Its Metabolite Hyalodendrin” (Marine Drugs, 2020).
Where “and” joins values, the source holds several entries; their conditions need not be identical. Equal values may be shown once. Read-outs that look alike come from different tables or passages of the source.

Assays:
3T3-F442A cells = test: MTT cell viability assay, 3T3-F442A pre-adipocytes; type: cell-based, murine; conditions: pure compounds, MTT, read-out: IC50 3T3-F442A
Method: (§1) Cellular viability was determined by the MTT (methylthiazolyldiphenyl-tetrazolium bromide) assay. Briefly, cells were exposed to the indicated concentrations of crude extracts or compounds 1–4 for five doubling times and then incubated for 3 h at 37 °C with MTT. Formazan crystals were then dissolved in DMSO and optical density measured at 570 nm in a microplate reader. The half-maximal inhibitory concentration (IC50) was determined. Values given for crude extracts are averages of at least two experiments done in duplicate. IC50 values calculated for the four isolated compounds and the commercially available 4-hydroxy-tamoxifen (Sigma-Aldrich) are averages of at least three experiments done in duplicate.

MCF7 cells = test: MTT cell viability assay, MCF7; type: cell-based, human; conditions: MTT, read-out: IC50 MCF7
Method: as §1

MCF7-Sh-WISP2 cells = test: MTT cell viability assay, MCF7-Sh-WISP2; type: cell-based, human; conditions: pure compounds, MTT, read-out: IC50 MCF7-Sh-WISP2
Method: as §1

[1] = test system: Plasmodium falciparum (chloroquine-resistant FcB1/Colombia strain); test: Anti-plasmodial assay ([3H]hypoxanthine incorporation); type: cell-based; conditions: data not shown, read-out: IC50 against Plasmodium falciparum
Method: Supplementary materials and methods.
The fungus was isolated in January 2012 as an endophyte from the holdfast of P. caniculata harvested in Roscoff (Britany, France). Both morphological assessment and internal transcribed spacer (ITS) sequencing were performed to identify it as Paradendryphiella salina. It is now maintained at the MCAM culture collection (Muséum National d’Histoire Naturelle, Paris) under the number PC 362H.
The anti-plasmodial activity was evaluated against the chloroquine-resistant FcB1/Colombia strain of Plasmodium falciparum. The assay was performed using the method of Desjardins (Desjardins et al., 1979). Extracts and pure compounds were diluted in Dimethyl Sulfoxyde (DMSO) and added to the culture medium (final concentration: 20 µg/mL) in 96-well microplates. Asynchronous parasite cultures were then added (1 % parasitemia and 1 % final hematocrite), and plates were maintained for 24 hours at 37 °C in a candle jar. […] After a cycle of freezing and thawing, the cells were harvested from each well onto glass fiber filters, and the dried filters were counted in a scintillation counter. The growth inhibition for each well was determined by comparison of the radioactivity incorporated into the treated culture with that in the control culture maintained on the same plate. […]

[2] = Homo sapiens, MCF7, pure compounds

Molecule | IC50 (3T3-F442A cells) [µM] | IC50 (MCF7 cells; pure compounds) [µM] | IC50 (MCF7-Sh-WISP2 cells) [µM] | IC50 (3T3-F442A cells; Mus musculus) | IC50 [1] [µM] | IC50 (MCF7 cells; [2]) | IC50 (MCF7-Sh-WISP2 cells; Homo sapiens)
4-hydroxy-tamoxifen [Hydroxi Tamoxifen, reference compound] | 14.5 | 8.8 | 11.6 | – | – | – | –
C[C@H](C(=O)O)[C@H]1CC[C@@]2(C)C3=C(C[C@@H](O)[C@]12C)[C@@]1(C)CC[C@H](O)C(C)(C)C1CC3 (relative stereo) [Compound 1, Dendryphiellide A] | > 60 | – | > 60 | > 25 µg/mL | 65 ± 4.2 | 20 µg/mL | > 25 µg/mL
COC(=O)CNC(=O)CC[C@@H](C)[C@H]1CC[C@H]2[C@H]3C(C[C@H](O)[C@]12C)[C@@]1(C)CC[C@@H](O)C[C@H]1C[C@H]3O (stereo partly shown) [Compound 2, glycocholic acid methyl ester] | – | – | – | > 25 µg/mL and > 50 µM | 20.5 ± 3.5 | > 25 µg/mL and > 50 µM | > 25 µg/mL and > 50 µM
CS[C@]1(CO)C(=O)N(C)[C@](Cc2ccccc2)(SC)C(=O)N1C [Compound 4, (3R, 6R) bisdethiodi(methylthio)hyalodendrin] | – | – | – | 92 µg/mL and 26 µM | – | 15 µg/mL and 42 µM | 24 µg/mL and 68 µM
